According to article PMC12655252, “Synthesis of 1H-Pyrrolo[3,2-g]isoquinoline Derivatives as Ligands Targeting Haspin Kinase” (Molecules, 2025):

System: endogenous Haspin kinase (phosphorylation of Histone H3 on Thr3) in U2OS cells
Experiment: H3T3ph immunofluorescence assay in U2OS cells (cellular endogenous Haspin activity)
Format: cell-based
Details: 1 μM, 16 h, positive control
Method: In order to assess the ability of our most interesting compounds to inhibit cellular endogenous Haspin kinase, we evaluated their effects on the phosphorylation of Histone H3 on Thr3, a bona fide Haspin substrate (Figure 4). We treated osteosarcoma U2OS cells with 2.5 μM of selected compounds for 16 h before quantifying H3T3 phosphorylation by immunofluorescence on early mitotic cells (Figure 4A,B). […] This discrepency could be explained by the inability of this compound to cross the plasma membrane or by reduced stability in a cellular environment.
Ethical approval for this study was obtained (9 July 2025) from DGRI-LabOGM (APPROVAL NUMBER: L1-2373). U2OS cells (purchased from ATCC, Manassas, VA, USA, reference HTB-96) were grown in DMEM medium (Dulbecco’s Modified Eagle Medium, High glucose; GlutaMAX, Life Technologies, Carlsbad, CA, USA) supplemented with 10% fetal bovine serum (Gibco, Grand Island, NY, USA) in a 5% CO2 humidified atmosphere. Cells grown on coverslips were treated for 16 h with each compound or 0.025% DMSO, then fixed with 4% paraformaldehyde in PBS, permeabilized by 0.15% Triton-X100 for 2 min, and blocked for 12 min in 4% BSA in PBS. Immunofluorescence assay was performed using standard protocols with a rabbit anti-phospho-Thr3 Histone H3 and a mouse anti-a-Tubulin (B-5-1-2) obtained from Merck Millipore, Burlington, MA, USA (1/2000 dilution). Coverslips were mounted with Vectashield containing DAPI (Vector Laboratories, Newark, CA, USA). Images were acquired with a Coolsnap HQ2 CCD camera (Photometrics, Tucson, AZ, USA) on a Zeiss Axio microscope (Carl Zeiss, Oberkochen, Germany) using a 63x NA 1.46 objective. Image acquisition and processing were performed using Zen Blue (Carl Zeiss). The H3T3ph signal on chromosomes was normalized against the DAPI signal and analyzed using ImageJ software (NIH, Version 1.54p). Graphs were produced and statistical analysis was performed using GraphPad Prism 10. p-values were determined by t-test; n.s., not significant; **** p ≤ 0.0001.
Figure 4 Evaluation of selected compounds on cellular endogenous Haspin activity. (A) U2OS cells were treated with 2.5 μM of each compound or 1 μM of CHR6494 (CHR) or DMSO for 16 h. Immunofluorescence assay was performed with anti-pH3T3 antibody (green) and anti-a-Tubulin (red); DNA was labelled with DAPI (blue). Representative images of early mitotic cells for each condition are presented. Scale bar: 5 μm. (B) Scatter plot representing H3T3ph/DAPI signal ratio indicative of Haspin activity; n > 17 mitotic cells per condition. n.s., not significant; **** p ≤ 0.0001.

CCCNc1ccc2ncc(-c3ccc4[nH]ncc4c3)n2n1 [CHR-6494, reference compound]
Effect on endogenous Haspin activity (H3T3 phosphorylation): abolished Haspin activity
